Experimental findings from patent publication US20260248761A1, “COMPOSITIONS AND METHODS FOR TREATMENT OF PULMONARY HYPERTENSION” (EpicentRx, Inc., priority 2022, published 2026) are described below.

For data set [1], the system named is male Wistar rats. As to the kind of experiment: Mean pulmonary artery pressure (mPAP) by catheter, intermittent hypoxia PAH study. The format is in vivo, rat. Conditions: FIG. 1A, intermittent hypoxia FiO2 10%, RRx-001 5 mg/kg or Bosentan 50 mg/kg mixed with blood, tail injection; for mPAP, lower value of group distribution: PAH group 27, control 16; for mPAP, median value of group distribution: PAH group 30, control 17, RRx-001 p<0.05 vs PAH; for mPAP, upper value of group distribution: PAH group 33, control 20. The protocol: (§1) The study exposed 18 male Wistar rats to an isobaric chamber with intermittent hypoxia where the fraction of inspired oxygen (FiO2) is 10%.
The mPAP was recorded in FIG. 1A using a catheter introduced into the right jugular vein of the male Wistar rats and passed across the tricuspid valve and a right ventricle into the pulmonary artery. A distribution of the mPAP results for the various groups is plotted in FIG. 1A.

In data set [2] the test system is male Wistar rats. As to the kind of experiment: Mean aortic pressure (mAP) by arterial catheter, intermittent hypoxia PAH study. Conditions: FIG. 1B, RRx-001 5 mg/kg or Bosentan 50 mg/kg mixed with blood; for mAP, lower value of group distribution: PAH group 117, control 98; for mAP, median value of group distribution: PAH group 137, control 113, RRx-001 p<0.05 vs PAH; for mAP, upper value of group distribution: PAH group 147, control 116. The format is in vivo, rat. As for the experimental part: as §1
The second graph, FIG. 1B, is a distribution of mean aortic pressure (mAP) that was recorded by an arterial catheter inserted via the carotid artery of the male Wistar rats. The PAH group distribution has an upper value for mAP of approximately 147 mmHg, a median value for the mAP of approximately 137 mmHg, and a lower value for the mAP of approximately 117 mmHg. The RRx-001 group has an upper value for the mAP of approximately 134 mmHg, a median value for the mAP of approximately 121 mmHg, and a lower value for the mAP of approximately 116 mmHg. The p value as determined for the mAP results between the PAH group and the RRx-001 group is less than 0.05.

Data set [3] deals with male Wistar rats. As to the kind of experiment: Wet weight ratio (Fulton index) RV/(LV+SP), right ventricular hypertrophy, hypoxia PAH study. The data set is classed as in vivo, rat. The note with it: FIG. 2, RRx-001 5 mg/kg or Bosentan 50 mg/kg mixed with blood; for wet weight ratio RV/(LV+SP), lower value: PAH group 0.38, control 0.28; for wet weight ratio RV/(LV+SP), median value: PAH group 0.43, control 0.31; for wet weight ratio RV/(LV+SP), upper value: PAH group 0.44, control 0.33. From the text:
A distribution of the collected data is plotted on the graph for the 4 groups of male Wistar rats: the control group, the PAH group, the RRx-001 group, and the Bosentan group. The calculated wet weight ratio is intended to be an indicator of right ventricular hypertrophy.
To measure the wet weight ratio, the heart was excised, the atria were removed, and the wall of the right ventrical (RV) was separated from the heart. Tissues were blotted and weighed. […] The elevated pulmonary arterial pressure was paralleled by an increase in systolic pressure, and right ventricular hypertrophy according to the Fulton index.

Data set [4] concerns male Wistar rats. As to the kind of experiment: Lung morphological changes: relative medial wall thickness and area, hypoxia PAH study. The format is in vivo, rat. The note with it: RRx-001 5 mg/kg or Bosentan 50 mg/kg mixed with blood; for medial wall thickness relative to external diameter, lower value / medial wall thickness relative to external diameter, median value / medial wall thickness relative to external diameter, upper value: FIG. 4A; for medial wall thickness relative to external diameter, lower value: PAH group 0.13, control 0.07; for medial wall thickness relative to external diameter, median value: PAH group 0.14, control 0.07; for medial wall thickness relative to external diameter, upper value: PAH group 0.15, control 0.08; for medial wall area relative to lumen area, lower value / medial wall area relative to lumen area, median value / medial wall area relative to lumen area, upper value: FIG. 4B; for medial wall area relative to lumen area, lower value: PAH group 0.16, control 0.11; for medial wall area relative to lumen area, median value: PAH group 0.17, control 0.12; for medial wall area relative to lumen area, upper value: PAH group 0.21, control 0.14. As for the experimental part:
To collect the data, male Wistar rats lungs were removed and fixed in paraformaldehyde, then dehydrated and embedded in paraffin for sectioning. The relative medial thickness and relative medial areas were calculated from vessels showing a clearly defined external and internal elastic lamina.

Data set [5] deals with male Wistar rats. As to the kind of experiment: H&E staining of the pulmonary arteriole (pulmonary vascular remodeling). The format is in vivo, rat. Conditions: FIG. 10, hypoxia induced PAH rats. From the text:
FIG. 10 depicts the effect of the RRx-001 and Bosentan on pulmonary vascular remodeling. Specifically, FIG. 10 depicts images showing H&E staining in the pulmonary arteriole.

The subject of data set [6] is male Wistar rats. The format is in vivo, rat. Conditions: FIG. 5A, hypoxia 1 week. The protocol: (§2) Male Wistar rats were kept in an isobaric hypoxic chamber with intermittent hypoxia (FiO2=10%) for (1) week (6 hours/day, 6 day/week). […] For administration, the RRx-001 (10 mg/kg) was mixed with blood and injected via the tail at the beginning of hypoxia exposure every day. […] Untreated control animals were not administered any agents and the SHAM (Control) group was not subjected to hypoxia.
Mean pulmonary pressure (mPAP) was recorded using a catheter introduced in the right jugular vein and passed across the tricuspid valve and right ventricle into the pulmonary artery.

The subject of data set [7] is male Wistar rats. The data set is classed as in vivo, rat. The protocol:
as §2
Mean aortic pressure (mAP) was recorded by an arterial catheter inserted via the carotid artery.

In data set [8] the test system is male Wistar rats. The data set is classed as in vivo, rat. As for the experimental part:
To measure the wet weight ratio, the heart was excised, the atria were removed, and the wall of the right ventrical (RV) was separated from the heart. Tissues were blotted and weighed.
as §2
The wet weight ratio is an indicator of right ventricle hypertrophy. The wet weight ratios were measured according to the same procedure as set out in the description for FIG. 2.
This is another data set of the same source.

In another data set the test system is Wistar rats. The note with it: FIG. 9, blood.
Data set [9] concerns male Wistar rats. As to the kind of experiment: Echocardiograph: ejection fraction and fractional shortening, hypoxia PAH study. The note with it: RRx-001 5 mg/kg or Bosentan 50 mg/kg mixed with blood; for ejection fraction, lower value / ejection fraction, median value / ejection fraction, upper value: FIG. 3A; for ejection fraction, lower value: PAH group 49%, control 65%; for ejection fraction, median value: PAH group 51%, control 68%; for ejection fraction, median value / fractional shortening, median value: RRx-001 p<0.05 vs PAH; for ejection fraction, upper value: PAH group 59%, control 72%; for fractional shortening, median value / fractional shortening, upper value: FIG. 3B; for fractional shortening, median value: PAH group 31%, control 42%; for fractional shortening, upper value: PAH group 33%, control 44%.
Procedure: The male Wistar rats exposed to hypoxia were then divided into 3 groups for the study. A first group of 6 male Wistar rats were untreated and labeled “PAH”. A second group of 6 male Wistar rats were treated with the RRx-001. A third group of 6 male Wistar rats were treated with Bosentan, which is a drug that is used to treat PAH.
Treatment for the second group of male Wistar rats comprised mixing 5 mg/kg RRx-001 with blood and administering the mixture via tail injection before the hypoxia exposure. Similarly, treatment for the third group of male Wistar rats comprised mixing 50 mg/kg Bosentan with blood and administering the mixture daily via tail injection before the hypoxia exposure.

SMILES strings stand for the structures. Values joined by “and” are separate entries in the source; they are usually repeats but may differ in a detail not shown here. Equal entries are not always repeated. Where two headings read alike, the source gives them in different places.

For the molecule `O=C(CBr)N1CC([N+](=O)[O-])([N+](=O)[O-])C1` [RRx-001, 2-bromo-1-(3,3-dinitroazetidin-1-yl) ethan-1-one], in the data set with male Wistar rats [1], the “mPAP, lower value of group distribution” value is “approximately 23 mmHg”; the “mPAP, median value of group distribution” value is recorded as “approximately 26 mmHg”; the “mPAP, upper value of group distribution” value is reported as “approximately 28 mmHg”. In addition, in the data set with male Wistar rats [2], the “mAP, lower value of group distribution” value is “approximately 116 mmHg”; the “mAP, median value of group distribution” value is “approximately 121 mmHg”; the “mAP, upper value of group distribution” value was “approximately 134 mmHg”. For the same molecule, in the data set on male Wistar rats [3], the “wet weight ratio RV/(LV+SP), lower value” was “approximately 0.34”; the “wet weight ratio RV/(LV+SP), median value” is “approximately 0.35”; the “wet weight ratio RV/(LV+SP), upper value” was “approximately 0.39”. For the same molecule, in the data set with male Wistar rats [4], the “medial wall thickness relative to external diameter, lower value” is “approximately 0.07”; the “medial wall thickness relative to external diameter, median value” is “approximately 0.08”; the “medial wall thickness relative to external diameter, upper value” is given as “approximately 0.09”; the “medial wall area relative to lumen area, lower value” is “approximately 0.14”. Besides, in the data set with male Wistar rats [4], the “medial wall area relative to lumen area, median value” is “approximately 0.14” and the “medial wall area relative to lumen area, upper value” is “approximately 0.16”. The “increases in pulmonary vascular wall thickness and muscularization of the pulmonary arteriole” value in the data set on male Wistar rats [5] was “inhibited”. The “median mPAP” value in the data set on male Wistar rats [6] (RRx-001 10 mg/kg + nitrite (NaNO2) 10 mg/kg s.c.) is on record as around 18 mmHg. In the data set with male Wistar rats [6] (RRx-001 10 mg/kg + nitrite (NaNO2) 20 mg/kg s.c.), the “median mPAP” value was around 16 mmHg. The “median mPAP” value in the data set with male Wistar rats [6] (RRx-001 10 mg/kg + nitrite (NaNO2) 40 mg/kg s.c.) is on record as around 15 mmHg. Moreover, the “median mPAP” value in the data set on male Wistar rats [6] (RRx-001 10 mg/kg mixed with blood daily, nitrite 0, saline/0 nitrite 23, control 20, SHAM 17) is “approximately 17 mmHg”. Moreover, in the data set on male Wistar rats [7] (FIG. 5B, hypoxia 1 week, RRx-001 10 mg/kg + nitrite 10 mg/kg s.c.), the “median mAP” value was around 115 mmHg. Besides, in the data set with male Wistar rats [7] (FIG. 5B, hypoxia 1 week, RRx-001 10 mg/kg + nitrite 20 mg/kg s.c.), the “median mAP” value was around 107 mmHg. The “median mAP” value with male Wistar rats [7] (FIG. 5B, hypoxia 1 week, RRx-001 10 mg/kg + nitrite 40 mg/kg s.c.) is around 102 mmHg. In addition, the “median mAP” value with male Wistar rats [7] (FIG. 5B, hypoxia 1 week, RRx-001 10 mg/kg mixed with blood daily, nitrite 0, saline/0 nitrite 137, control 124, SHAM 109) is recorded as “approximately 116 mmHg”. For the same molecule, in the data set with male Wistar rats [8] (FIG. 7/8, hypoxia 1 week, RRx-001 10 mg/kg + nitrite 10 mg/kg), the “median wet weight ratio RV/(LV+SP)” value is reported as “approximately 0.40 mg/mg”. In addition, the “median wet weight ratio RV/(LV+SP)” value in the data set on male Wistar rats [8] (FIG. 7/8, hypoxia 1 week, RRx-001 10 mg/kg + nitrite 20 mg/kg) is given as around 0.35 mg/mg. The “median wet weight ratio RV/(LV+SP)” value in the data set on male Wistar rats [8] (FIG. 7/8, hypoxia 1 week, RRx-001 10 mg/kg + nitrite 40 mg/kg) is given as around 0.32 mg/mg. In addition, the “effect on right ventricle hypertrophy (wet weight ratio)” value with male Wistar rats [8] (FIG. 7/8, hypoxia study with nitrite, result in words) is on record as “has an effect on right ventricle hypertrophy”. Also, the “median wet weight ratio RV/(LV+SP)” value in the data set on male Wistar rats [8] (rat, in vivo, 10 mg/kg) is given as “approximately 0.37 mg/mg”. In the data set with Wistar rats (RRx-001 10 mg/kg + nitrite 10 mg/kg), the “median metHb concentration” value is reported as around 3%. Further, in the data set with Wistar rats (RRx-001 10 mg/kg + nitrite 20 mg/kg), the “median metHb concentration” value is on record as around 7%. Moreover, in the data set with Wistar rats (RRx-001 10 mg/kg + nitrite 40 mg/kg), the “median metHb concentration” value was around 12%. The “median metHb concentration” value with Wistar rats (RRx-001 10 mg/kg, nitrite 0, saline/0 nitrite and controls 1%) was “approximately 1%”. In addition, in the data set on male Wistar rats [9], the “ejection fraction, lower value” is reported as “approximately 60%”; the “ejection fraction, median value” is reported as “approximately 66%”; the “ejection fraction, upper value” is reported as “approximately 69%”; the “fractional shortening, median value” was “approximately 38%”. For the same molecule, the “fractional shortening, upper value” in the data set with male Wistar rats [9] was “approximately 39%”.

On to `COc1ccccc1Oc1c(NS(=O)(=O)c2ccc(C(C)(C)C)cc2)nc(-c2ncccn2)nc1OCCO` [Bosentan, reference compound], for which, in the data set on male Wistar rats [1], the “mPAP, lower value of group distribution” value is listed as “approximately 21 mmHg”; the “mPAP, median value of group distribution” value was “approximately 22 mmHg”; the “mPAP, upper value of group distribution” value is reported as “approximately 24 mmHg”. In the data set with male Wistar rats [2], the “mAP, lower value of group distribution” value is “approximately 108 mmHg”; the “mAP, median value of group distribution” value is on record as “approximately 120 mmHg”; the “mAP, upper value of group distribution” value was “approximately 126 mmHg”. In the data set with male Wistar rats [3], the “wet weight ratio RV/(LV+SP), lower value” is on record as “approximately 0.32”; the “wet weight ratio RV/(LV+SP), median value” was “approximately 0.35”; the “wet weight ratio RV/(LV+SP), upper value” is “approximately 0.39”. In the data set on male Wistar rats [4], the “medial wall thickness relative to external diameter, lower value” is reported as “approximately 0.09”; the “medial wall thickness relative to external diameter, median value” is reported as “approximately 0.10”; the “medial wall thickness relative to external diameter, upper value” is on record as “approximately 0.12”; the “medial wall area relative to lumen area, lower value” is “approximately 0.14”. Moreover, in the data set on male Wistar rats [4], the “medial wall area relative to lumen area, median value” was “approximately 0.16” and the “medial wall area relative to lumen area, upper value” is on record as “approximately 0.17”. For the same molecule, in the data set on male Wistar rats [9], the “ejection fraction, lower value” is “approximately 52%”; the “ejection fraction, median value” is reported as “approximately 59%”; the “ejection fraction, upper value” is “approximately 63%”; the “fractional shortening, median value” is recorded as “approximately 38%”. Also, the “fractional shortening, upper value” with male Wistar rats [9] was “approximately 42%”.

As for `O=NO` [nitrite, reference compound], in the data set with male Wistar rats [7] (rat, in vivo), the “effect of nitrite on mAP versus mPAP” value was “systemic effect on mAP but less significant on mPAP”; the “median mAP” value was ~122 mmHg and ~126 mmHg and ~120 mmHg.
